Results taken from patent US7972785B2, “Biomarkers for liver fibrotic injury” (Industrial Technology Research Institute (ITRI), priority 2006, dated 2011).

Experiments:
[1] = test system: rat liver proteins (vimentin, fibrinogen); test: iTRAQ proteomics / Western blot of liver protein of DMN-treated rats; assay type: in vivo; conditions: DMN-induced rats
Procedure: The liver tissues of 6 control and 6 DMN-treated rats were used to perform duplicate iTRAQ labeling experiments. Liver tissue was frozen in liquid nitrogen and then pulverized to powder using a mortar and pestle pre-cooled with liquid nitrogen. Then, the liquid nitrogen was allowed to evaporate, and the powdered tissue was separated into tubes and stored at −80° C. Twenty volumes (w/v) of lysis buffer (containing 2% (w/v) SDS in 20 mM phosphate buffer at pH 7.6) was added to the powdered tissue and incubated at room temperature for 1 hour. […]
The total protein contents were determined using the Coomassie Plus Protein Assay Reagent (PIERCE, Rockford, Ill., U.S.A.). […]
Peptides with different isobaric tags were pooled and acidified by mixing with 10 mM phosphoric acid (in 25% (v/v) acetonitrile and 75% H2O) to a total volume of 4.0 mL for strong cation exchange (SCX) chromatography. […] The desalted peptide from each SCX fraction was dried by speed vacuuming centrifugation and then analyzed by nanoLC hybrid mass spectrometry. […] MS/MS mass spectra were analyzed in continuous flow mode with a […] I.D. fused silica tip. MS/MS spectra were analyzed against rat.fasta databases from NCBI by ProQUANT 2.0 (Applied Biosystems/MDS Sciex, Foster City, Calif., U.S.A.). […] Relative quantification of peptide was performed on the MS/MS scans, using ratio of the areas under the peaks. […]

rat liver transcripts = test: Affymetrix Rat Genome U34A microarray gene expression profiling of liver of DMN-treated rats; assay type: in vivo
From the text: Protocols and reagents for hybridization, washing and staining followed Affymetrix's instructions, which may be retrieved from Affymetrix's company website. Labeled cRNA was hybridized to the Affymetrix GeneChip Test 3 Array to verify the quality prior to hybridization to the Affymetrix Rat Genome U34A Array.
The microarray images were transformed into text files containing intensity information using GENECHIP® Operating Software (GCOS) developed by ® Affymetrix. The microarray datasets were then analyzed using GENESPRING® 7.2 software (Silicon Genetics, Redwood City, Calif., U.S.A.)
Over the six week time course of the experiment, the liver tissues of 12 control animals and 12 DMN-treated rats (2 rats for each time point) were selected to perform microarray experiments. Before any statistical analyses were applied to the microarray data, reproducibility was assessed. Genes were selected as present when they were assigned a present call according to the perfect match (PM)/mismatch (MM) algorithm of Affymetrix in all gene chips (28). Of the 8799 probe sets analyzed, overall expression patterns for 2385 transcripts on the chips were reported to be present (P<0.05). […] Scattered graphs of expression levels of the 2385 transcripts represented on the microarray were compared with each other. The relationship between the experimental chips in the microarray analysis was analyzed by linear regression. Overall, there was no statistical difference, with 3.2% of transcripts deviating more than 2-fold. To investigate the time course variability, the reliable signals of these 2385 probe sets between the first and sixth week of controls, were calculated. Again, there was no statistical difference, with 4.6% of transcripts deviating more than 2-fold. In contrast, a significant scatter was found between controls and DMN-treated groups, with 28.7% of transcripts deviating more than 2-fold. […]

For `CN(C)N=O` [DMN, Dimethylnitrosamine], the Fibrinogen protein expression [1] was “up-regulated”, the “transcripts deviating more than 2-fold between controls and DMN-treated groups” value (rat liver transcripts; 2385 present transcripts) was 28.7% and the “Timp1 expression elevation in DMN treated rats” value (rat liver transcripts; microarray) was “more than twenty”. The CD63 expression (rat liver transcripts; microarray, after DMN treatment) was “up-regulated”.
